Experimental data from article PMC7048748, “Anxiolytic Drug FGIN-1-27 Ameliorates Autoimmunity by Metabolic Reprogramming of Pathogenic Th17 Cells” (Scientific Reports, 2020).

Tests used:
[1] = system: experimental autoimmune encephalomyelitis (EAE); assay: Active EAE induced with MOG peptide 35-55; format: in vivo, mouse; settings: 30 mg/kg intraperitoneal twice daily for 7 days
[2] = system: Th17 cells from TSPO KO mice; assay: Th17 differentiation with CD4 T cells from TSPO knockout mice; format: cell-based, mouse; settings: compared with T cells expressing TSPO
Description: We explored the mechanism of action for FGIN-1-27 and whether the effect of FGIN-1-27 on Th17 differentiation was driven by TSPO, the reported target of this compound. We used two approaches: first, we investigated the correlation between FGIN-1-27 induced IL-17 down-regulation and binding to TSPO. For the binding studies, we used a biochemical radio ligand displacement assay with the well-characterized TSPO ligand PK-11195 as a tracer. […] Secondly, we purified CD4^+ T cells from spleen and lymph nodes of mice that lacked global expression of TSPO (TSPO KO mice)[19]. We added FGIN-1-27 to the cultures of CD4^+ T cells from controls or TSPO KO mice that were induced towards the Th17 differentiation program.
Figure 3 Effect of FGIN-1-27 on Th17 Differentiation is Independent of TSPO. (a) Plot showing correlation between binding of FGIN-1-27 to TSPO and effect on IL-17 production. Binding of FGIN-1-27 to TSPO was measured using a biochemical radiolabeled displacement assay and radiolabeled PK-11195 was used as a control ligand. (b) Immunoblot to detect TSPO from spleens of either control or TSPO knockout mice (upper panel) and dose response plot for FGIN-1-27 showing effect on Th17 differentiation using purified CD4 T cells from spleens of either control or TSPO knockout mice. IL-17 production was normalized using DMSO treatment from control cells as 100%. […]

Th17 cells [3] = assay: Transcript levels by qPCR in Th17 cells; format: cell-based, mouse
Protocol: Figure 1 FGIN-1-27 Inhibits Th17 Differentiation. Naïve CD4 T cells from spleens and lymph nodes of C57BL/6 mice were differentiated under Th17 polarization conditions and were treated with DMSO (control) or FGIN-1-27. (a) Dose response plot showing effect of FGIN-1-27 on intracellular IL-17 and viability on day 4 post activation quantified by flow cytometry. Data is normalized against DMSO (100%). […] (b) Dot plots showing DMSO or FGIN-1-27 treated cells stained for surface CD4, CD44, intracellular IL-17 and intranuclear RORγt. (c) Transcript levels for the indicated genes after 24 hours of treatment with DMSO or FGIN-1-27 quantified by qPCR. Data was normalized to a housekeeping gene, β-actin. Data are representative of at least 3 independent experiments and the error bars indicate standard deviation.
Figure 5 FGIN-1-27 induces amino acid starvation response (AAR). (a) MA-plot showing shrunken log2 fold-changes of detected genes between the DMSO and FGIN-1-27 RNA-seq samples, ranked by average normalized count. Red dots indicate differentially expressed genes at adjusted p-value <0.05. (b) Transcript levels for the indicated genes after 24 hours of treatment with DMSO or FGIN-1-27 quantified by qPCR. The error bars represent SD. (c) Western blot analysis for phosphorylated eIF2α and ATF4 24 hours after treatment with DMSO or FGIN-1-27 (5 and 10 µM). Data are representative of 3 independent experiments. (d) Amino acids in Th17 cells measured 72 hours after treatment with FGIN-1-27. The error bars represent SD. (e) ROS was measured using cell permeant reagent 2′,7′ –dichlorofluorescin diacetate (DCFDA) at 24 hours following treatment with FGIN-1-27. Filled grey histogram-DMSO, dotted line-FGIN-1-27 (10 µM) and dashed line indicates FGIN-1-27 (5 µM). […]
Total RNA extractions were performed with the RNAeasy kit (Qiagen) followed by cDNA synthesis using High capacity cDNA Reverse Transcription kit (Applied Biosystems). Quantitative PCR was performed on a ViiA 7 (Applied Biosystems) using SYBR Fast qPCR master mix (Kapa Biosystems). […]

Th17 cells [4] = assay: Whole-transcriptome RNA sequencing of treated CD4+ T cells; format: cell-based, mouse
Protocol: Total RNA extractions for RNA-seq were performed using the mirVana kit (Applied Biosystems). RNA concentration was measured using the Qubit RNA broad range assay in the Qubit Flurometer (Invitrogen) and RNA integrity was determined with Eukaryote Total RNA Nano Series II ChIP on a 2100 Bioanalyzer (Agilent). RNA-seq libraries were prepared using TruSeq RNA sample preparation kit (Illumina). In brief, oligo-dT purified mRNA was fragmented and subjected to first and second strand cDNA synthesis. cDNA fragments were blunt ended, ligated to Illumina adaptors and PCR amplified to enrich for the fragments ligated to adaptors. The resulting cDNA libraries were verified and quantified on Agilent Bioanalyzer and single-end 96 cycle sequencing was conducted (Illumina).
Reads were aligned to the mm10 genome and the GRCm38 v87 transcriptome with STAR v2.5.2a using default parameters and output tracks normalized by RPM (–outWigNorm RPM). RSEM v1.3 was used to calculate gene counts and TPMs on the transcriptome-aligned reads as previously described[37]. Differential expression analysis was performed in R v3.5.2, using DESeq. 2 v1.22.2. […] Heatmaps were generated with the R package, heatmap. Integrative Genomics Viewer v2.4.19 was used for visualization of normalized bigwig tracks.

CCCCCCN(CCCCCC)C(=O)Cc1c(-c2ccc(F)cc2)[nH]c2ccccc12 [FGIN-1-27, N, N-di-n-hexyl 2-(4-fluorophenyl) indole-3-acetamide]
onset or severity of the symptoms [1]: did not affect onset or severity
Th17 differentiation in T cells from TSPO KO mice [2]: similarly to T cells expressing TSPO
ATF4 target genes Asns and Gpt2 (Th17 cells [3]; 24 hours): induced
expression of RORγt target genes (Il17a, Il17f, Il23r, Ltb4r1, Ccr6) and Stat3 (Th17 cells [3]; 24 hours of treatment, p < 0.0001): significantly downregulated
CD5L transcript (Th17 cells [3]; 72 hours post treatment): substantial up-regulation
genes encoding glycolytic enzymes (hexokinase, phosphofructokinase, pyruvate kinase) (Th17 cells [4]; 24 hours): significantly down-regulated
differentially expressed genes (Th17 cells [4]; vs DMSO, FDR < 0.05, 24 hours): 587
